Each block holds one molecule with its values, some of them ahead of it.
Experiments:
Assay in all cases: ITC
[1] = tested on: aptananozyme II: 3'-amino-DBA (2) on Cu2+ C-dots (DNA, aptamer) CGACGCCAGTTTGAAGGTTCGTTCGCAGGTGTGGAGTGACGTCG; details: 100 mM NaCl, 5 mM MgCl2, 5 mM MES, pH 5.5
[2] = tested on: aptananozyme IV: 5'-amino-(TGTA)2-DBA (4) on Cu2+ C-dots (DNA, aptamer) TGTATGTACGACGCCAGTTTGAAGGTTCGTTCGCAGGTGTGGAGTGACGTCG; details: 100 mM NaCl, 5 mM MgCl2, 5 mM MES, pH 5.5
[3] = tested on: aptananozyme V: 5'-amino-(TGTA)3-DBA (5) on Cu2+ C-dots (DNA, aptamer) TGTATGTATGTACGACGCCAGTTTGAAGGTTCGTTCGCAGGTGTGGAGTGACGTCG; details: 100 mM NaCl, 5 mM MgCl2, 5 mM MES, pH 5.5
[4] = tested on: aptananozyme III: 5'-amino-(TGTA)-DBA (3) on Cu2+ C-dots (DNA, aptamer) TGTACGACGCCAGTTTGAAGGTTCGTTCGCAGGTGTGGAGTGACGTCG; details: 100 mM NaCl, 5 mM MgCl2, 5 mM MES, pH 5.5
[5] = tested on: aptananozyme I: 5'-amino-DBA (1) on Cu2+ C-dots (DNA, aptamer) CGACGCCAGTTTGAAGGTTCGTTCGCAGGTGTGGAGTGACGTCG; details: 100 mM NaCl, 5 mM MgCl2, 5 mM MES, pH 5.5; for Kd: printed as 'the aptamer', methods: aptananozyme
[6] = tested on: aptananozyme XIV: 5'-amino-(TGTA)3-TBA (10) on Cu2+ C-dots (DNA, aptamer) TGTATGTATGTATGTGGTGTGTGAGTGCGGTGCCC; details: 100 mM NaCl, 5 mM MgCl2, 50 mM phosphate, pH 7.2, Figure S16 legend: 50 mM NaCl, 10 mM MgCl2
[7] = tested on: aptananozyme XII: 5'-amino-(TGTA)-TBA (8) on Cu2+ C-dots (DNA, aptamer) TGTATGTGGTGTGTGAGTGCGGTGCCC; details: 100 mM NaCl, 5 mM MgCl2, 50 mM phosphate, pH 7.2, Figure S16 legend: 50 mM NaCl, 10 mM MgCl2
[8] = tested on: aptananozyme XIII: 5'-amino-(TGTA)2-TBA (9) on Cu2+ C-dots (DNA, aptamer) TGTATGTATGTGGTGTGTGAGTGCGGTGCCC; details: 100 mM NaCl, 5 mM MgCl2, 50 mM phosphate, pH 7.2, Figure S16 legend: 50 mM NaCl, 10 mM MgCl2
[9] = tested on: aptananozyme X: 5'-amino-TBA (6) on Cu2+ C-dots (DNA, aptamer) TGTGGTGTGTGAGTGCGGTGCCC; details: 100 mM NaCl, 5 mM MgCl2, 50 mM phosphate, pH 7.2, Figure S16 legend: 50 mM NaCl, 10 mM MgCl2
[10] = tested on: aptananozyme XI: 3'-amino-TBA (7) on Cu2+ C-dots (DNA, aptamer) TGTGGTGTGTGAGTGCGGTGCCC; details: 100 mM NaCl, 5 mM MgCl2, 50 mM phosphate, pH 7.2, Figure S16 legend: 50 mM NaCl, 10 mM MgCl2

binding [1]: yes
binding [2]: yes
Kd [3]: 3900 ± 200 nM
binding [4]: yes
binding ([5]; aptamer on Cu2+ C-dots): yes
Structure (SMILES): NCCc1ccc(O)c(O)c1

Kd [5]: 6600 ± 1000 nM
Structure (SMILES): N[C@H](Cc1ccc(O)c(O)c1)C(=O)O

Kd [6]: 1400 ± 100 nM
binding [7]: yes
binding [8]: yes
Kd [9]: 830 ± 10 nM
Kd [10]: 1240 ± 50 nM
Structure (SMILES): NC(=O)[C@@H](N)Cc1ccc(O)cc1

Kd [5]: 1700 ± 400 nM
Structure (SMILES): N[C@@H](Cc1ccc(O)c(O)c1)C(=O)O

Source: paper PMC8856595 (2021)
